# Reference: patent publication US9695155B2, “Herbicidal substituted pyrimidinyloxy benzene compounds” (E. I. DU PONT DE NEMOURS AND COMPANY, priority 2013, dated 2017)
# Experiments:
# kochia = experiment: Test C postemergence; format: in vivo, Kochia scoparia
# Outline: (§1)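 Preemergence: seeds sown in a loam soil–sand blend and sprayed with test chemical in a non-phytotoxic solvent mixture containing surfactant. Postemergence: plants at 2 to 18 cm (1- to 4-leaf stage) in peat-based medium, treated with the same formulation. Greenhouse 13 to 15 days, then visual rating 0 (no effect) to 100 (complete control).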
# barnyardgrass [1] = experiment: Test C postemergence; format: in vivo, Echinochloa crus-galli
# Outline: as §1
# corn [2] = experiment: Test A preemergence; format: in vivo, Zea mays
# Outline: (§2)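 Compounds in non-phytotoxic solvent with surfactant applied as soil spray preemergence, or postemergence to plants 2-10 cm at one- to two-leaf stage, in loam/sand. After approximately 10 days in greenhouse, injury rated visually versus untreated controls, 0 (no effect) to 100 (complete control).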
# pigweed [3] = experiment: Test A preemergence; format: in vivo, Amaranthus retroflexus
# Outline: as §2
# sedge, umbrella = experiment: Test B flooded paddy test; format: in vivo, Cyperus difformis; conditions: Flood, 250 g ai/ha, 0 to 100 scale where 0 is no effect and 100 is complete control
# Outline: (§3)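 Plants were grown to the 2-leaf stage, then pots were flooded to 3 cm above the soil and compounds were applied directly into the paddy water. That depth was held throughout, and after 13 to 15 days in the greenhouse injury was rated visually against controls on a 0–100 scale (0 no effect, 100 complete control).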
# barnyardgrass [4] = experiment: Test A postemergence; format: in vivo, Echinochloa crus-galli
# Outline: as §2
# rice = experiment: Test B flooded paddy test; format: in vivo, Oryza sativa; conditions: Flood, 250 g ai/ha, 0 to 100 scale where 0 is no effect and 100 is complete control
# Outline: as §3
# giant foxtail = experiment: Test A postemergence; format: in vivo, Setaria faberii; conditions: 0 to 100 scale where 0 is no effect and 100 is complete control
# Outline: as §2
# barnyardgrass [5] = experiment: Test A preemergence; format: in vivo, Echinochloa crus-galli
# Outline: as §2
# galium = experiment: Test C postemergence; format: in vivo, Galium aparine
# Outline: as §1
# velvetleaf = experiment: Test C postemergence; format: in vivo, Abutilon theophrasti
# Outline: as §1
# wheat [6] = experiment: Test A postemergence; format: in vivo, Triticum aestivum; conditions: 0 to 100 scale where 0 is no effect and 100 is complete control
# Outline: as §2
# Heteranthera limosa = experiment: Test B flooded paddy test; format: in vivo; conditions: Flood, 250 g ai/ha, 0 to 100 scale where 0 is no effect and 100 is complete control
# Outline: as §3
# pigweed [7] = experiment: Test A postemergence; format: in vivo, Amaranthus retroflexus; conditions: 0 to 100 scale where 0 is no effect and 100 is complete control
# Outline: as §2
# pigweed [8] = experiment: Test C postemergence; format: in vivo, Amaranthus retroflexus
# Outline: as §1
# wheat [9] = experiment: Test A preemergence; format: in vivo, Triticum aestivum; conditions: for Plant response rating, Wheat: 125 g ai/ha, 0 to 100 scale where 0 is no effect and 100 is complete control
# Outline: as §2
# corn [10] = experiment: Test A postemergence; format: in vivo, Zea mays
# Outline: as §2
# [11] = 16 g ai/ha, postemergence, visual rating, scale 0 to 100 (0 no effect, 100 complete control), 13 to 15 days
# [12] = Postemergence, 31 g ai/ha, scale 0 to 100 (0 no effect, 100 complete control), 13 to 15 days
# [13] = Postemergence, 62 g ai/ha, scale 0 to 100 (0 no effect, 100 complete control)
# [14] = 125 g ai/ha, 0 to 100 scale where 0 is no effect and 100 is complete control
# [15] = 500 g ai/ha, 0 to 100 scale, 0 no effect, 100 complete control, approx. 10 days
# [16] = 500 g ai/ha, 0 to 100 scale where 0 is no effect and 100 is complete control
smiles,measurement,setting,value
"FC(F)c1cnn(-c2ccccc2Oc2ncc(Cl)cn2)c1 [Compound 80, 5-chloro-2-[2-[4-(difluoromethyl)-1H-pyrazol-1-yl]phenoxy]pyrimidine]",pest or weed control at 16 g/ha,"kochia; Bassia scoparia, post-emergence, 16 g ai/ha, postemergence, visual rating, scale 0 to 100 (0 no effect, 100 complete control), 13 to 15 days, read-out: Kochia plant response rating",60%
same,pest or weed control at 125 g/ha,"kochia; Bassia scoparia, post-emergence, 125 g ai/ha, postemergence, read-out: Plant response rating (0 to 100), Kochia",95%
same,pest or weed control at 31 g/ha,"kochia; Bassia scoparia, post-emergence, Postemergence, 31 g ai/ha, scale 0 to 100 (0 no effect, 100 complete control), 13 to 15 days, read-out: Plant response rating, Kochia",90%
same,pest or weed control at 62 g/ha,"kochia; Bassia scoparia, post-emergence, Postemergence, 62 g ai/ha, scale 0 to 100 (0 no effect, 100 complete control), read-out: Plant response rating, Kochia",95%
same,pest or weed control at 16 g/ha,"barnyardgrass [1]; Echinochloa crus-galli, post-emergence, 16 g ai/ha, postemergence, visual rating, scale 0 to 100 (0 no effect, 100 complete control), 13 to 15 days, read-out: Barnyardgrass plant response rating",0%
same,pest or weed control at 125 g/ha,"barnyardgrass [1]; Echinochloa crus-galli, post-emergence, 125 g ai/ha, postemergence, read-out: Plant response rating (0 to 100), Barnyardgrass",5%
same,pest or weed control at 31 g/ha,"barnyardgrass [1]; Echinochloa crus-galli, post-emergence, Postemergence, 31 g ai/ha, scale 0 to 100 (0 no effect, 100 complete control), 13 to 15 days, read-out: Plant response rating, Barnyardgrass",5%
same,pest or weed control at 62 g/ha,"barnyardgrass [1]; Echinochloa crus-galli, post-emergence, Postemergence, 62 g ai/ha, scale 0 to 100 (0 no effect, 100 complete control), read-out: Plant response rating, Barnyardgrass",5%
same,"Corn plant response rating (crop injury, 0 = no effect, 100 = complete kill) at 125 g/ha","corn [2]; Zea mays, pre-emergence, 240 h, 125 g ai/ha, 0 to 100 scale where 0 is no effect and 100 is complete control",0%
same,plant injury at 500 g/ha,"corn [2]; Zea mays, pre-emergence, 240 h, 500 g ai/ha, 0 to 100 scale, 0 no effect, 100 complete control, approx. 10 days, read-out: Corn plant response rating",40%
same,pest or weed control at 125 g/ha,"pigweed [3]; Amaranthus retroflexus, pre-emergence, 125 g ai/ha, 0 to 100 scale where 0 is no effect and 100 is complete control, read-out: Plant response rating, Pigweed",0%
same,pest or weed control at 500 g/ha,"pigweed [3]; Amaranthus retroflexus, pre-emergence, 240 h, 500 g ai/ha, 0 to 100 scale, 0 no effect, 100 complete control, approx. 10 days, read-out: Pigweed plant response rating",0%
same,pest or weed control at 250 g/ha,"sedge, umbrella; Cyperus difformis, read-out: Plant response rating, Sedge, Umbrella",80%
same,pest or weed control at 125 g/ha,"barnyardgrass [4]; Echinochloa crus-galli, post-emergence, 240 h, 125 g ai/ha, 0 to 100 scale where 0 is no effect and 100 is complete control, read-out: Plant response rating, Barnyardgrass",70%
same,pest or weed control at 500 g/ha,"barnyardgrass [4]; Echinochloa crus-galli, post-emergence, 240 h, 500 g ai/ha, 0 to 100 scale, 0 no effect, 100 complete control, read-out: Plant response rating Barnyardgrass",100%
same,plant injury at 250 g/ha,"rice; Oryza sativa, read-out: Plant response rating, Rice",0%
same,pest or weed control at 125 g/ha,"giant foxtail; Setaria faberi, post-emergence, 240 h, 125 g ai/ha, read-out: Plant response rating, Foxtail, Giant",80%
same,pest or weed control at 500 g/ha,"giant foxtail; Setaria faberi, post-emergence, 240 h, 500 g ai/ha, read-out: Plant response rating, Foxtail, Giant",90%
same,pest or weed control at 125 g/ha,"barnyardgrass [5]; Echinochloa crus-galli, pre-emergence, 240 h, 125 g ai/ha, 0 to 100 scale where 0 is no effect and 100 is complete control, read-out: Plant response rating, Barnyardgrass",60%
same,pest or weed control at 500 g/ha,"barnyardgrass [5]; Echinochloa crus-galli, pre-emergence, 240 h, 500 g ai/ha, 0 to 100 scale, 0 no effect, 100 complete control, approx. 10 days, read-out: Barnyardgrass plant response rating",100%
same,pest or weed control at 16 g/ha,"galium; Galium, post-emergence, 16 g ai/ha, postemergence, visual rating, scale 0 to 100 (0 no effect, 100 complete control), 13 to 15 days, read-out: Galium plant response rating",55%
same,pest or weed control at 125 g/ha,"galium; Galium, post-emergence, 125 g ai/ha, postemergence, read-out: Plant response rating (0 to 100), Galium",95%
same,pest or weed control at 31 g/ha,"galium; Galium, post-emergence, Postemergence, 31 g ai/ha, scale 0 to 100 (0 no effect, 100 complete control), 13 to 15 days, read-out: Plant response rating, Galium",70%
same,pest or weed control at 62 g/ha,"galium; Galium, post-emergence, Postemergence, 62 g ai/ha, scale 0 to 100 (0 no effect, 100 complete control), read-out: Plant response rating, Galium",85%
same,pest or weed control at 125 g/ha,"velvetleaf; Abutilon theophrasti, post-emergence, 125 g ai/ha, postemergence, read-out: Plant response rating (0 to 100), Velvetleaf",75%
same,pest or weed control at 31 g/ha,"velvetleaf; Abutilon theophrasti, post-emergence, Postemergence, 31 g ai/ha, scale 0 to 100 (0 no effect, 100 complete control), 13 to 15 days, read-out: Plant response rating, Velvetleaf",45%
same,pest or weed control at 62 g/ha,"velvetleaf; Abutilon theophrasti, post-emergence, Postemergence, 62 g ai/ha, scale 0 to 100 (0 no effect, 100 complete control), read-out: Plant response rating, Velvetleaf",65%
same,plant injury at 125 g/ha,"wheat [6]; Triticum aestivum, post-emergence, 240 h, 125 g ai/ha, read-out: Plant response rating, Wheat",40%
same,plant injury at 500 g/ha,"wheat [6]; Triticum aestivum, post-emergence, 240 h, 500 g ai/ha, read-out: Plant response rating, Wheat",80%
same,pest or weed control at 250 g/ha,"Heteranthera limosa; Heteranthera limosa, read-out: Plant response rating, Ducksalad",100%
same,pest or weed control at 125 g/ha,"pigweed [7]; Amaranthus retroflexus, post-emergence, 125 g ai/ha, read-out: Plant response rating, Pigweed",100%
same,pest or weed control at 500 g/ha,"pigweed [7]; Amaranthus retroflexus, post-emergence, 500 g ai/ha, read-out: Plant response rating, Pigweed",100%
same,pest or weed control at 125 g/ha,"pigweed [8]; Amaranthus retroflexus, post-emergence, 125 g ai/ha, postemergence, read-out: Plant response rating (0 to 100), Pigweed",75%
same,pest or weed control at 31 g/ha,"pigweed [8]; Amaranthus retroflexus, post-emergence, Postemergence, 31 g ai/ha, scale 0 to 100 (0 no effect, 100 complete control), 13 to 15 days, read-out: Plant response rating, Pigweed",60%
same,pest or weed control at 62 g/ha,"pigweed [8]; Amaranthus retroflexus, post-emergence, Postemergence, 62 g ai/ha, scale 0 to 100 (0 no effect, 100 complete control), read-out: Plant response rating, Pigweed",65%
same,"Plant response rating, Wheat",wheat [9],10
same,plant injury at 500 g/ha,"wheat [9]; Triticum aestivum, pre-emergence, 240 h, 500 g ai/ha, 0 to 100 scale, 0 no effect, 100 complete control, approx. 10 days, read-out: Wheat plant response rating",50%
same,"Corn plant response rating (crop injury, 0 = no effect, 100 = complete kill) at 125 g/ha","corn [10]; Zea mays, post-emergence, 240 h, 125 g ai/ha, 0 to 100 scale where 0 is no effect and 100 is complete control",70%
same,plant injury at 500 g/ha,"corn [10]; Zea mays, post-emergence, 240 h, 500 g ai/ha, 0 to 100 scale, 0 no effect, 100 complete control, read-out: Plant response rating Corn",10%
Fc1cnc(Oc2cccc(C(F)F)c2-n2cc(Cl)cn2)nc1 [Compound 94],Kochia plant response rating,kochia; [11],30
same,"Plant response rating (0 to 100), Kochia","kochia; 125 g ai/ha, postemergence",90
same,"Plant response rating, Kochia",kochia; [12],80
same,"Plant response rating, Kochia",kochia; [13],90
same,Barnyardgrass plant response rating,barnyardgrass [1]; [11],10
same,"Plant response rating (0 to 100), Barnyardgrass","barnyardgrass [1]; 125 g ai/ha, postemergence",10
same,"Plant response rating, Barnyardgrass",barnyardgrass [1]; [12],10
same,"Plant response rating, Barnyardgrass",barnyardgrass [1]; [13],10
same,"Plant response rating, Corn",corn [2]; [14],0
same,Corn plant response rating,corn [2]; [15],30
same,"Plant response rating, Pigweed",pigweed [3]; [14],100
same,Pigweed plant response rating,pigweed [3]; [15],100
same,"Plant response rating, Sedge, Umbrella","sedge, umbrella",30
same,"Plant response rating, Barnyardgrass",barnyardgrass [4]; [14],20
same,"Plant response rating, Barnyardgrass",barnyardgrass [4]; [16],90
same,"Plant response rating, Rice",rice,0
same,"Plant response rating, Foxtail, Giant",giant foxtail; 125 g ai/ha,70
same,"Plant response rating, Foxtail, Giant",giant foxtail; 500 g ai/ha,90
same,"Plant response rating, Barnyardgrass",barnyardgrass [5]; [14],80
same,Barnyardgrass plant response rating,barnyardgrass [5]; [15],100
same,Galium plant response rating,galium; [11],45
same,"Plant response rating (0 to 100), Galium","galium; 125 g ai/ha, postemergence",80
same,"Plant response rating, Galium",galium; [12],70
same,"Plant response rating, Galium",galium; [13],80
same,"Plant response rating (0 to 100), Velvetleaf","velvetleaf; 125 g ai/ha, postemergence",40
same,"Plant response rating, Velvetleaf",velvetleaf; [12],20
same,"Plant response rating, Velvetleaf",velvetleaf; [13],65
same,"Plant response rating, Wheat",wheat [6]; 125 g ai/ha,0
same,"Plant response rating, Wheat",wheat [6]; 500 g ai/ha,50
same,"Plant response rating, Ducksalad",Heteranthera limosa,40
same,"Plant response rating, Pigweed",pigweed [7]; 125 g ai/ha,100
same,"Plant response rating, Pigweed",pigweed [7]; 500 g ai/ha,100
same,"Plant response rating (0 to 100), Pigweed","pigweed [8]; 125 g ai/ha, postemergence",85
same,"Plant response rating, Pigweed",pigweed [8]; [12],80
same,"Plant response rating, Pigweed",pigweed [8]; [13],80
same,"Plant response rating, Wheat",wheat [9],0
same,"Plant response rating, Corn",corn [10]; [14],30
same,"Plant response rating, Corn",corn [10]; [16],50
